{"source": "ChEMBL document CHEMBL5291721", "about": "“A preclinical secondary pharmacology resource illuminates target-adverse drug reaction associations of marketed drugs” (Nat Commun, 2023); further: assay procedure not described here", "key": {"[1]": {"target": "Voltage-dependent N-type calcium channel subunit alpha-1B (Rattus norvegicus, UniProt Q02294)", "format": "functional"}, "[2]": {"target": "Neuronal acetylcholine receptor subunit alpha-4 (Homo sapiens, UniProt P43681)"}, "Cannabinoid receptor 1 [3]": {"target": "T1, Cannabinoid receptor 1 (Homo sapiens, UniProt P21554)", "T1 sequence (P21554 whole entry)": "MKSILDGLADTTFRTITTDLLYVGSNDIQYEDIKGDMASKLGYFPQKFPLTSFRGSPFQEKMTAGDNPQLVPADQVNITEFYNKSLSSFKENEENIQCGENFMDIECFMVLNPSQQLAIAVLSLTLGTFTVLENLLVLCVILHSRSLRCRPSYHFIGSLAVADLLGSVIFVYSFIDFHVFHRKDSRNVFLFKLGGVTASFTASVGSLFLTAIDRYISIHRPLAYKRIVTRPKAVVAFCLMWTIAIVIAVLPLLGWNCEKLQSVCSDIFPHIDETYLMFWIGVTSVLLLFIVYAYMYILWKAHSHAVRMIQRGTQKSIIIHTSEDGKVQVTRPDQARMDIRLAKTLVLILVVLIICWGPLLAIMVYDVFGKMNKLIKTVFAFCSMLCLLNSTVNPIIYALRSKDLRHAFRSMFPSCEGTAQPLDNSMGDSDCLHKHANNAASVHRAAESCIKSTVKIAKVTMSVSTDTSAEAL", "format": "functional, cell-based"}, "Cannabinoid receptor 1 [4]": {"target": "T1, Cannabinoid receptor 1"}, "D(1A) dopamine receptor [5]": {"target": "T2, D(1A) dopamine receptor (Homo sapiens, UniProt P21728)", "T2 sequence (P21728 whole entry)": "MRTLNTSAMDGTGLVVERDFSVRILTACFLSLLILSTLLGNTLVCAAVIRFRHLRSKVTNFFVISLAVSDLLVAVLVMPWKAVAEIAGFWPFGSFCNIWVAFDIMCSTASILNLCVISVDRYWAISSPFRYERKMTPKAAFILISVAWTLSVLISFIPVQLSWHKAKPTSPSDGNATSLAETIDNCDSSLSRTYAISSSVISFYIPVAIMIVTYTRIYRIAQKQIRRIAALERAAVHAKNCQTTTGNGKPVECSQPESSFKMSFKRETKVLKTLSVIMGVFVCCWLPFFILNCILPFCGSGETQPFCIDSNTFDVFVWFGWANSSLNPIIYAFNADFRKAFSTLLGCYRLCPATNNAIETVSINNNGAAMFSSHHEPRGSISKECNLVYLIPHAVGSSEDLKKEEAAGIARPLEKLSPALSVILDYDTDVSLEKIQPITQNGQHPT", "format": "functional, cell-based"}, "D(1A) dopamine receptor [6]": {"target": "T2, D(1A) dopamine receptor"}, "D(1A) dopamine receptor [7]": {"target": "T2, D(1A) dopamine receptor", "remark": "listed apart in the source"}, "D(3) dopamine receptor [8]": {"target": "T3, D(3) dopamine receptor (Homo sapiens, UniProt P35462)", "T3 sequence (P35462 whole entry)": "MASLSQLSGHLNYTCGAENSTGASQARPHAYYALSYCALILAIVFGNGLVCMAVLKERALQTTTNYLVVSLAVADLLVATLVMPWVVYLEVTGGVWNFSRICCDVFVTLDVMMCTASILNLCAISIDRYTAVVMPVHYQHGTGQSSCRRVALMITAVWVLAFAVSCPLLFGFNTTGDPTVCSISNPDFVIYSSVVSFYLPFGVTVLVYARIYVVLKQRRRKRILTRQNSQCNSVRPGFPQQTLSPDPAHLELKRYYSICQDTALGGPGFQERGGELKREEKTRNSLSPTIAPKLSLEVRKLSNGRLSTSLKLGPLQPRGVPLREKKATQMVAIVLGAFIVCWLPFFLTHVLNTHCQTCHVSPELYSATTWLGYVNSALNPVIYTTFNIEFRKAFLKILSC"}, "D(4) dopamine receptor": {"target": "T4, D(4) dopamine receptor (Homo sapiens, UniProt P21917)", "T4 sequence (P21917 whole entry)": "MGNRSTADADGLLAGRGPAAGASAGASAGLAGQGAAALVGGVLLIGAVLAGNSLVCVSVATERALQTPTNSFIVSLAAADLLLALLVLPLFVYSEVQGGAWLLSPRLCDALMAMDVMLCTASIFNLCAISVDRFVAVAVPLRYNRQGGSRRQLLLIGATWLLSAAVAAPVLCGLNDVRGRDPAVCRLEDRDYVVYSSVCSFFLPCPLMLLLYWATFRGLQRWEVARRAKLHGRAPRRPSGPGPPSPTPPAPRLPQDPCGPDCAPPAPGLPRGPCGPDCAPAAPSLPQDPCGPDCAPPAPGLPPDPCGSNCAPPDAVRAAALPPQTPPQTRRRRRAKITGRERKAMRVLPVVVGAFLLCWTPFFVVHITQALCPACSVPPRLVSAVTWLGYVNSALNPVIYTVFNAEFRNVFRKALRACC"}, "[9]": {"target": "T5, Gamma-aminobutyric acid receptor subunit alpha-1 (Rattus norvegicus, UniProt P62813)", "T5 sequence (P62813 whole entry)": "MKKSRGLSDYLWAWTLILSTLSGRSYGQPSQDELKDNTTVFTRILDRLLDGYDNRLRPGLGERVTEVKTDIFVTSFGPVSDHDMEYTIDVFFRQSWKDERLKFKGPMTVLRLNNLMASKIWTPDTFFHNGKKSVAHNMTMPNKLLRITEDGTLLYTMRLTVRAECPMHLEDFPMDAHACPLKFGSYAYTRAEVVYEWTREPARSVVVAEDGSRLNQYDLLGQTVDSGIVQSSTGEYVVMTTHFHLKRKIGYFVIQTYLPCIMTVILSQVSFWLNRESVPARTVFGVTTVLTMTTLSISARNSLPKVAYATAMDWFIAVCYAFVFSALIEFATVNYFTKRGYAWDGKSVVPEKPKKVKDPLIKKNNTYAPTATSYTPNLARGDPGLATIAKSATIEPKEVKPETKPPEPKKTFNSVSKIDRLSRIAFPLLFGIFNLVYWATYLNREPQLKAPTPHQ"}, "[10]": {"target": "T5, Gamma-aminobutyric acid receptor subunit alpha-1", "remark": "listed apart in the source"}, "[11]": {"target": "T5, Gamma-aminobutyric acid receptor subunit alpha-1", "format": "functional"}, "[12]": {"target": "Glutamate receptor ionotropic, NMDA 1 (Rattus norvegicus, UniProt P35439)"}, "[13]": {"target": "T6, 5-hydroxytryptamine receptor 1A (Homo sapiens, UniProt P08908)", "T6 sequence (P08908 whole entry)": "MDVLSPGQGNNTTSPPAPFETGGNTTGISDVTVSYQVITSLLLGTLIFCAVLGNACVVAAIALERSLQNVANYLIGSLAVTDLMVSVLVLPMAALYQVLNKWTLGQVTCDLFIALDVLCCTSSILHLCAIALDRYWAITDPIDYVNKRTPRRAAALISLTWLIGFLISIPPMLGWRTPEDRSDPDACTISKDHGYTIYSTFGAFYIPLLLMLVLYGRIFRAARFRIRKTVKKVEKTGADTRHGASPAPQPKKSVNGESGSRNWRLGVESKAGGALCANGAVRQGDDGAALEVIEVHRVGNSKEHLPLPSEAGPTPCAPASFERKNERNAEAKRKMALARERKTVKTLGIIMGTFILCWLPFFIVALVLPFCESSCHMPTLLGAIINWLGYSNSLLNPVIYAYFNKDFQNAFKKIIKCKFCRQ", "format": "functional, cell-based"}, "[14]": {"target": "T6, 5-hydroxytryptamine receptor 1A", "format": "functional, cell-based", "remark": "listed apart in the source"}, "[15]": {"target": "T6, 5-hydroxytryptamine receptor 1A"}, "[16]": {"target": "T7, 5-hydroxytryptamine receptor 2B (Homo sapiens, UniProt P41595)", "T7 sequence (P41595 whole entry)": "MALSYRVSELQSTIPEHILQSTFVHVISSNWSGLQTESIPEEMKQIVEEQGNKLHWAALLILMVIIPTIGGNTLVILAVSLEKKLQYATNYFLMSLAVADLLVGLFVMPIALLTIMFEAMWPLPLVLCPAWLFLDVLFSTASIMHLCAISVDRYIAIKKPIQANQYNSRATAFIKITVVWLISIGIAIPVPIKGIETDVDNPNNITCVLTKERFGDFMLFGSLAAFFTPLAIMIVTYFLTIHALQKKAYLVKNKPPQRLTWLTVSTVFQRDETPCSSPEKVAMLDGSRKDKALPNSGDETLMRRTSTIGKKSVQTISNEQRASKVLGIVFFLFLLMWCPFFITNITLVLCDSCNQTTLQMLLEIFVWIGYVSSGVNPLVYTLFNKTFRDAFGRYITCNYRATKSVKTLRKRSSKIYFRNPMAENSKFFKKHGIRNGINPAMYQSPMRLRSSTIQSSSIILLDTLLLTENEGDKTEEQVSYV", "format": "functional, cell-based"}, "[17]": {"target": "T7, 5-hydroxytryptamine receptor 2B", "format": "functional, cell-based", "remark": "listed apart in the source"}, "[18]": {"target": "T7, 5-hydroxytryptamine receptor 2B", "format": "functional, cell-based", "remark": "listed apart in the source"}, "[19]": {"target": "T7, 5-hydroxytryptamine receptor 2B"}, "[20]": {"target": "T8, 5-hydroxytryptamine receptor 2C (Homo sapiens, UniProt P28335)", "T8 sequence (P28335 whole entry)": "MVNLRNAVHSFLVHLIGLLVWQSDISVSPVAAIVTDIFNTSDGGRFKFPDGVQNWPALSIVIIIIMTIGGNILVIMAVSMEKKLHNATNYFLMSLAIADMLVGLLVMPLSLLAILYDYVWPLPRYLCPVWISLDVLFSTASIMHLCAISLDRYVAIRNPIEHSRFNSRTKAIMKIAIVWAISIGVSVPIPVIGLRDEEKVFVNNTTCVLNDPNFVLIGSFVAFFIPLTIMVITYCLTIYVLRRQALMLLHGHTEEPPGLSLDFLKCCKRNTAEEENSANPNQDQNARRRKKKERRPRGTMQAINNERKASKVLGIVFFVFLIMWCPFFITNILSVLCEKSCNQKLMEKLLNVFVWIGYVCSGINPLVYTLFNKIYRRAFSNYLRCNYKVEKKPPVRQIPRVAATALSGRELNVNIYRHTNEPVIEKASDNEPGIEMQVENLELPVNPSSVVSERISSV"}, "[21]": {"target": "T9, 5-hydroxytryptamine receptor 3A (Homo sapiens, UniProt P46098)", "T9 sequence (P46098 whole entry)": "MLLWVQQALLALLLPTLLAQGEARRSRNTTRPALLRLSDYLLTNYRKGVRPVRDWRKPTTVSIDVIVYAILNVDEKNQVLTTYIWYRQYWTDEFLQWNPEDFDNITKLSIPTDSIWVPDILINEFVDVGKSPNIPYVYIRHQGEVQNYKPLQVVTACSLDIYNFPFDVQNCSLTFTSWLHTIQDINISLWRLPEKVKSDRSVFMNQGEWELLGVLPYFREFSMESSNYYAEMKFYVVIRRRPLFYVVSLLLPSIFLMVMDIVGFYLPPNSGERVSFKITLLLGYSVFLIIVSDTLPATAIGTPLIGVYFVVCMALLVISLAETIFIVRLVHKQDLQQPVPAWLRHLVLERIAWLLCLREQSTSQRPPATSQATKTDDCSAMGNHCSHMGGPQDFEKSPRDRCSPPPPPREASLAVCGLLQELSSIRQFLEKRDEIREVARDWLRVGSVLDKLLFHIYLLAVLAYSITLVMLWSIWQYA", "format": "functional"}, "[22]": {"target": "Delta-type opioid receptor (Homo sapiens, UniProt P41143)", "sequence (P41143 whole entry)": "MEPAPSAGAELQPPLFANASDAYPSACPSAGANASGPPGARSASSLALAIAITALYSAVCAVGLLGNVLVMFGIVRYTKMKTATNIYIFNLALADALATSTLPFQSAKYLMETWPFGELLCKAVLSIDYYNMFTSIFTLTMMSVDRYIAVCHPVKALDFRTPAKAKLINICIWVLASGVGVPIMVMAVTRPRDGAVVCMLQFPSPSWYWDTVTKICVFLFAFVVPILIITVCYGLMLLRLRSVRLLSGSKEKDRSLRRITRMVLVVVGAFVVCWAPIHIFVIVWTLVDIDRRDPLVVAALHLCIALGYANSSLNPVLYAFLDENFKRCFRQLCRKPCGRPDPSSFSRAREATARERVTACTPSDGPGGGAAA"}, "[23]": {"target": "Kappa-type opioid receptor (Homo sapiens, UniProt P41145)", "sequence (P41145 whole entry)": "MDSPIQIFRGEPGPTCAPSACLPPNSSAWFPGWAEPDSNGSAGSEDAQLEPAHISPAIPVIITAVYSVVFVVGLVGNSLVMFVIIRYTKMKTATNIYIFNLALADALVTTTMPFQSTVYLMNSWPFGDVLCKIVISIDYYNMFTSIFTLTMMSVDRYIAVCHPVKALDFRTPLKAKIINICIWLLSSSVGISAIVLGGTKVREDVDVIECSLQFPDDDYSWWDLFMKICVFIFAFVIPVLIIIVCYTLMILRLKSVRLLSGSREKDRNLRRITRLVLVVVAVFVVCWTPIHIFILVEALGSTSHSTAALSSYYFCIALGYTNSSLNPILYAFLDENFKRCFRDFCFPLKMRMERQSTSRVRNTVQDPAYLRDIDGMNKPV"}, "Mu-type opioid receptor [24]": {"target": "T10, Mu-type opioid receptor (Homo sapiens, UniProt P35372)", "T10 sequence (P35372 whole entry)": "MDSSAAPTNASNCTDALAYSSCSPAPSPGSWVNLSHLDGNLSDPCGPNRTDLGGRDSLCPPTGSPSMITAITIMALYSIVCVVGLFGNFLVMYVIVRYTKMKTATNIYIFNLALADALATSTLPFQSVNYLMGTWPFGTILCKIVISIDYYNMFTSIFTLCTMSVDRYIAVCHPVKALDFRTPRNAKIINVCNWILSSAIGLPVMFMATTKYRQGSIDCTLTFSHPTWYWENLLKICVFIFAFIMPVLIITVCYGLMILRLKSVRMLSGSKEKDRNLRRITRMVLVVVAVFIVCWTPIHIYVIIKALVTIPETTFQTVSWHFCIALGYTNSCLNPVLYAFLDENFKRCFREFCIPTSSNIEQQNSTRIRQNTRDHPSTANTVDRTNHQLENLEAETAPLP"}, "[25]": {"target": "T11, Sodium-dependent noradrenaline transporter (Homo sapiens, UniProt P23975)", "T11 sequence (P23975 whole entry)": "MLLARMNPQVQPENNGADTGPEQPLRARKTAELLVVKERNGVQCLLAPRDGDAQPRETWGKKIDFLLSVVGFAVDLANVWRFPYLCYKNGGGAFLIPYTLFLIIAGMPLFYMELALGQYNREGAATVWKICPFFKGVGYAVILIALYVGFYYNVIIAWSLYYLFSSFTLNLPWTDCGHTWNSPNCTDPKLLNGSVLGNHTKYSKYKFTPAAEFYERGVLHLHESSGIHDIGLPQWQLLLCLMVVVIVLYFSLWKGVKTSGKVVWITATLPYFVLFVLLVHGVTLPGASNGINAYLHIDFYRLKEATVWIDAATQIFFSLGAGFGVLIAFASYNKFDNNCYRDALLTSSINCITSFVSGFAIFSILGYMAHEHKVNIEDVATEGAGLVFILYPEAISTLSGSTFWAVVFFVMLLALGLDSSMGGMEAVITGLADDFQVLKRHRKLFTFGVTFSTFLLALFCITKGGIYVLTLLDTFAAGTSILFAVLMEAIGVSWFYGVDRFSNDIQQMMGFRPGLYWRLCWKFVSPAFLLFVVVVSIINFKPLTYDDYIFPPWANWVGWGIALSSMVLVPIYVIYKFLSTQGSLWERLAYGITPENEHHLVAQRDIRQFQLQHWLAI"}, "[26]": {"target": "T12, Sodium-dependent dopamine transporter (Homo sapiens, UniProt Q01959)", "T12 sequence (Q01959 whole entry)": "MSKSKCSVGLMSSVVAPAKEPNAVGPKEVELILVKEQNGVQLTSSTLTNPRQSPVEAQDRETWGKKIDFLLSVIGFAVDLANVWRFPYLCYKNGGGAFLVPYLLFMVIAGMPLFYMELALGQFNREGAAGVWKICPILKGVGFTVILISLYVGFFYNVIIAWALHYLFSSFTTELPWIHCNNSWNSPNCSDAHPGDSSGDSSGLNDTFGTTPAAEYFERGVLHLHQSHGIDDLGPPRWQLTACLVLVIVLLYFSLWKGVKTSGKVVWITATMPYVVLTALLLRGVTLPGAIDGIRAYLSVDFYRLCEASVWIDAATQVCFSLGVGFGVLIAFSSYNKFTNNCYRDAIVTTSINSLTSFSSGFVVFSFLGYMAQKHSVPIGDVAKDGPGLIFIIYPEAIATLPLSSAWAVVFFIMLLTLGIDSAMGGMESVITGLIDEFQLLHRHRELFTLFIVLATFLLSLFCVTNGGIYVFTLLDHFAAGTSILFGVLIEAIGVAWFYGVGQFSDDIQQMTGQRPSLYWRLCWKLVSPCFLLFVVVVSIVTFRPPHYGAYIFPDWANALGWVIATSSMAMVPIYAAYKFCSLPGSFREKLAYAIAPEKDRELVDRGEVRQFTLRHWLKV"}, "[27]": {"target": "T12, Sodium-dependent dopamine transporter", "remark": "listed apart in the source"}, "[28]": {"target": "T11, Sodium-dependent noradrenaline transporter", "remark": "listed apart in the source"}, "Mu-type opioid receptor [29]": {"target": "T10, Mu-type opioid receptor", "remark": "listed apart in the source"}, "[30]": {"target": "T6, 5-hydroxytryptamine receptor 1A", "remark": "listed apart in the source"}, "D(3) dopamine receptor [31]": {"target": "T3, D(3) dopamine receptor", "remark": "listed apart in the source"}, "D(1A) dopamine receptor [32]": {"target": "T2, D(1A) dopamine receptor", "remark": "listed apart in the source"}}}
{"smiles": "COC(=O)C1=C(C)NC(C)=C(C(=O)OC)C1c1ccccc1[N+](=O)[O-]", "note": "[NIFEDIPINE]", "values": [{"measurement": "AC50", "setting": "[1]", "result": "> 10", "unit": "µM"}, {"measurement": "AC50", "setting": "[2]", "result": "> 10", "unit": "µM"}, {"measurement": "AC50", "setting": "Cannabinoid receptor 1 [3]", "result": "> 30", "unit": "µM"}, {"measurement": "AC50", "setting": "Cannabinoid receptor 1 [4]", "result": "> 10", "unit": "µM"}, {"measurement": "AC50", "setting": "D(1A) dopamine receptor [5]", "result": "> 10", "unit": "µM"}, {"measurement": "AC50", "setting": "D(1A) dopamine receptor [6]", "result": 26, "unit": "µM"}, {"measurement": "AC50", "setting": "D(1A) dopamine receptor [7]", "result": "> 30", "unit": "µM"}, {"measurement": "AC50", "setting": "D(3) dopamine receptor [8]", "result": "> 30", "unit": "µM"}, {"measurement": "AC50", "setting": "D(4) dopamine receptor", "result": "> 10", "unit": "µM"}, {"measurement": "AC50", "setting": "[9]", "result": "> 10", "unit": "µM"}, {"measurement": "AC50", "setting": "[10]", "result": "> 30", "unit": "µM"}, {"measurement": "AC50", "setting": "[11]", "result": "> 10", "unit": "µM"}, {"measurement": "AC50", "setting": "[12]", "result": "> 10", "unit": "µM"}, {"measurement": "AC50", "setting": "[13]", "result": "> 10", "unit": "µM"}, {"measurement": "AC50", "setting": "[14]", "result": "> 10", "unit": "µM"}, {"measurement": "AC50", "setting": "[15]", "result": "> 30", "unit": "µM"}, {"measurement": "AC50", "setting": "[16]", "result": "> 10", "unit": "µM"}, {"measurement": "AC50", "setting": "[17]", "result": "> 30", "unit": "µM"}, {"measurement": "AC50", "setting": "[18]", "result": 6.8, "unit": "µM"}, {"measurement": "AC50", "setting": "[19]", "result": "> 10", "unit": "µM"}, {"measurement": "AC50", "setting": "[20]", "result": "> 30", "unit": "µM"}, {"measurement": "AC50", "setting": "[21]", "result": "> 30", "unit": "µM"}, {"measurement": "AC50", "setting": "[22]", "result": "> 30", "unit": "µM"}, {"measurement": "AC50", "setting": "[23]", "result": "> 10", "unit": "µM"}, {"measurement": "AC50", "setting": "Mu-type opioid receptor [24]", "result": "> 30", "unit": "µM"}, {"measurement": "AC50", "setting": "[25]", "result": "> 30", "unit": "µM"}, {"measurement": "AC50", "setting": "[26]", "result": "> 30", "unit": "µM"}, {"measurement": "AC50", "setting": "[27]", "result": "> 10", "unit": "µM"}, {"measurement": "AC50", "setting": "[28]", "result": "> 10", "unit": "µM"}, {"measurement": "AC50", "setting": "Mu-type opioid receptor [29]", "result": 11, "unit": "µM"}, {"measurement": "AC50", "setting": "[30]", "result": "> 10", "unit": "µM"}, {"measurement": "AC50", "setting": "D(3) dopamine receptor [31]", "result": "> 10", "unit": "µM"}, {"measurement": "AC50", "setting": "D(1A) dopamine receptor [32]", "result": "> 10", "unit": "µM"}]}
